Reference: patent US20250051281A1, “CRYSTALLINE FORM OF AROMATIC RING DERIVATIVE, AND PREPARATION METHOD THEREFOR AND APPLICATION THEREOF” (SHANGHAI JEMINCARE PHARMACEUTICAL CO., LTD, priority 2021, published 2025)

Experiments:
Assay type in all cases: physicochemical
[1] = Changes in shape of crystal forms under high temperature, high humidity and light exposure (Table 26)
From the text: (§1) Consequently, the inventors selected four crystal forms with good reproducibility and ease of purification: crystal forms A, B, G, and Q. These crystal forms were subjected to stability tests under identical conditions of high temperature, high humidity, and light exposure.

[2] = Stability test of crystal forms under high temperature, high humidity and light exposure (HPLC purity); details: for Purity after 30 days at a temperature of 25° C. with a relative humidity of 90% ± 5%: 90% ± 5% RH; for Purity after 30 days at a temperature of 25° C. with a relative humidity of 90% ± 5% / Purity after 30 days at high temperature (60° C.) / Purity after 30 days at a light intensity of 4500 Lx ± 500 Lx / Initial purity: HPLC purity; for Initial purity: before stress conditions
From the text: (§2) The high-performance liquid chromatography (HPLC) analysis method used in the present disclosure is as follows: an Agilent 1260 was used to test the purity and stability of the sample under the conditions shown in Table 18.
as §1

[3] = Purity of crystal forms at storage conditions of 25° C. and 40° C. (Table 27)
Method: as §2
The purity of crystal forms A, B, G, and Q, under identical mass and packaging conditions, was investigated at storage conditions of 25° C. and 40° C., as shown in Table 27.

[4] = Stability verification of crystal form G in different solvents (XRPD form after slurry or vapour exposure); details: room temperature, dried under vacuum at 50° C. for 2 hours
Method: The X-ray powder diffraction analysis method used in the present disclosure is as follows: X-ray powder diffraction testing was conducted at room temperature using a Bruker D2 PHASER diffractometer (300 W low-power X-ray emitter). During the test, a silicon wafer was used to sustain the sample powder, and an X-ray Cu (Kα) tube was used, with a Kα2/Kα1 intensity ratio of 0.50 (1.54439 Å/1.5406 Å). The instrument was set to 30 kV and 10 mA, with a step size of 0.02° (2θ), a scanning time of 0.15 s per step, for a total of 1837 steps.
Method 1: The crystal form G (50 mg) was added to 0.5 mL of the corresponding solvent (the solvent may be EtOH, H2O, or a mixture of EtOH/H2O in the ratios of 970/30, 927/73, 855/145, 704/296, v/v).
Method 2: The crystal form G (15 mg) was placed in a 4 mL glass vial, which was then placed inside a 20 mL glass vial containing 3 mL of a volatile solvent (which may be MeOH or EtOH). The 20 mL glass vial was tightly capped and left to stand at room temperature for approximately one week.

[5] = High Temperature (60° C.), 5 Days
[6] = High Temperature (60° C.), 10 Days
[7] = High Temperature (60° C.), 30 Days
[8] = Light intensity of 4500 Lx ± 500 Lx, 5 Days
[9] = Light intensity of 4500 Lx ± 500 Lx, 10 Days
[10] = Light intensity of 4500 Lx ± 500 Lx, 30 Days
[11] = Temperature of 25° C., relative humidity of 90% ± 5%, 5 Days
[12] = Temperature of 25° C., relative humidity of 90% ± 5%, 10 Days
[13] = Temperature of 25° C., relative humidity of 90% ± 5%, 30 Days

SMILES	Shape (appearance) [1, 5]	Shape (appearance) [1, 6]	Shape (appearance) [1, 7]	Shape (appearance) ([1]; Initial State)	Shape (appearance) [1, 8]	Shape (appearance) [1, 9]	Shape (appearance) [1, 10]	Shape (appearance) [1, 11]	Shape (appearance) [1, 12]	Shape (appearance) [1, 13]	Purity after 30 days at a temperature of 25° C. with a relative humidity of 90% ± 5% [2]	Purity after 30 days at high temperature (60° C.) [2]	Purity after 30 days at a light intensity of 4500 Lx ± 500 Lx [2]	Initial purity [2]	Purity on storage ([3]; 25° C., 0 Days)	Purity on storage ([3]; 25° C., 15 Days)	Purity on storage ([3]; 25° C., 30 Days)	Purity on storage ([3]; 25° C., 45 Days)	Purity on storage ([3]; 25° C., 60 Days)	Purity on storage ([3]; 25° C., 90 Days)	also measured
Cc1c(CCC(=O)[O][Ca][O]C(=O)CCc2[nH]c3ccc(OCc4ccc(C5CCCC5)c(C(F)(F)F)c4)cc3c2C)[nH]c2ccc(OCc3ccc(C4CCCC4)c(C(F)(F)F)c3)cc12 [Crystal form G]	Off-white solid	Off-white solid	Off-white solid	Off-white solid	Off-white solid	Pale yellow	Yellow solid	Off-white solid	Off-white solid	Off-white solid	98.78%	99.12%	96.02%	99.60%	99.48%	99.42%	99.43%	99.43%	99.41%	99.36%	Stability under high temperature, high humidity, and light exposure conditions compared to the other crystal forms ([2]; summary of Tables 25 and 26, versus crystal forms A, B, Q): higher stability; Purity on storage ([3]; 40° C., 0 Days): 99.48%; Purity on storage ([3]; 40° C., 15 Days): 99.28%; Purity on storage ([3]; 40° C., 30 Days): 99.27%; Purity on storage ([3]; 40° C., 45 Days): 99.24%; Purity on storage ([3]; 40° C., 60 Days): 99.16%; Purity on storage ([3]; 40° C., 90 Days): 99.01%; Stability when stored at 25° C. and 40° C. for 90 days ([3]; summary of Table 27, 90 days): higher stability; Crystal form obtained after stirring in solvent ([4]; EtOH, H2O or EtOH/H2O mixtures, 4 days): obtain the crystal form G; Crystal form obtained after exposure to volatile solvent vapour ([4]; MeOH or EtOH vapour, approximately one week): obtain the crystal form G
Cc1c(CCC(=O)O)[nH]c2ccc(OCc3ccc(C4CCCC4)c(C(F)(F)F)c3)cc12 [Crystal form B]	Off-white	Off-white	Off-white	Off-white	Off-white	Pale yellow	Yellow solid	Off-white	Off-white	Off-white	98.50%	97.21%	94.55%	99.44%	99.14%	99.05%	99.00%	98.93%	98.94%	98.86%	Purity on storage ([3]; 40° C., 0 Days): 99.14%; Purity on storage ([3]; 40° C., 15 Days): 98.88%; Purity on storage ([3]; 40° C., 30 Days): 98.73%; Purity on storage ([3]; 40° C., 45 Days): 98.68%; Purity on storage ([3]; 40° C., 60 Days): 98.66%; Purity on storage ([3]; 40° C., 90 Days): 98.40%
Cc1c(CCC(=O)O)[nH]c2ccc(OCc3ccc(C4CCCC4)c(C(F)(F)F)c3)cc12 [Crystal form A]	Off-white	Pale yellow	Yellow solid	Off-white	Off-white	Pale yellow	Yellow solid	Off-white	Off-white	Off-white	98.49%	94.57%	94.45%	99.28%	99.03%	98.91%	98.93%	98.87%	98.85%	98.73%	Purity on storage ([3]; 40° C., 0 Days): 99.03%; Purity on storage ([3]; 40° C., 15 Days): 98.73%; Purity on storage ([3]; 40° C., 30 Days): 98.42%; Purity on storage ([3]; 40° C., 45 Days): 98.30%; Purity on storage ([3]; 40° C., 60 Days): 98.15%; Purity on storage ([3]; 40° C., 90 Days): 97.69%
